# Test results published in article PMC6327983, “Discovery of cyanopyridine scaffold as novel indoleamine-2,3-dioxygenase 1 (IDO1) inhibitors through virtual screening and preliminary hit optimisation” (Journal of Enzyme Inhibition and Medicinal Chemistry, 2019).
# Tests used:
# [1] = molecular target: T1, IDO1 (Homo sapiens, UniProt P14902); test: Determination of the inhibition type (rate V against enzyme amount E); format: biochemical; details: 1 µM inhibitor, 50 µM L-tryptophan
# T1 construct: made in house
# T1 sequence (P14902 whole entry): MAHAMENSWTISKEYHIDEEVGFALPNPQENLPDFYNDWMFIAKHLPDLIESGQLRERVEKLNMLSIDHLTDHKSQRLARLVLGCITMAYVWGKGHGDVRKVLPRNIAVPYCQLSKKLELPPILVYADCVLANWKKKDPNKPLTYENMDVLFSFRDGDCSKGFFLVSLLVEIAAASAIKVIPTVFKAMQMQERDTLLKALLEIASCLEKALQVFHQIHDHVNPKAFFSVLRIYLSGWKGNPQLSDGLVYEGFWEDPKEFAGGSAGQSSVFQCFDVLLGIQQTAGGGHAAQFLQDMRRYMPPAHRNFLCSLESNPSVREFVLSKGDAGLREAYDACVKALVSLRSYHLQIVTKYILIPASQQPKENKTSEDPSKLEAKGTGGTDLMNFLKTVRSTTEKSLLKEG
# Protocol: The standard assay mixture (1 ml) contained 50 mM potassium phosphate buffer (pH = 6.5), 25 mM neutralised ascorbic acid, 10 µM methylene blue, 100 µg/mL catalase, 50 µM L-Trp, DMSO (0.5%), and eight different concentrations of IDO1. In addition, 1 µM LBJ-10 solution was added into the mixture. The reaction, at 37 °C, was started by the addition of the substrate and terminated after 60 min by adding 200 µL of 30% (w/v) trichloroacetic acid and further incubated at 50 °C for 30 min to hydrolyse N-formylkynurenine to produce kynurenine. After centrifugation at 12,000 rpm for 15 min at 20 °C, kynurenine in the supernatant (1 mL) was measured by a HPLC system with a reversed phase column (4.6 mm × 15 cm) of GL Sciences Inc. The mobile phase was 10 mM ammonium acetate containing 10% (w/v) methanol, and kynurenine was detected by absorbance at 360 nm. All determinations were carried out in duplicate. The data presented are average values. Based on the results of the activity assay, a function of rate ([V]) against enzyme amount ([E]) was proposed.
# We also carried the additional experiment to determine the reversibility of compound LBJ-10. Detailed kinetics analysis was performed on LBJ-10 based on plotting a function of the rate (V) against the enzyme amount ([E]) (Figure 12(A))[58]^,[59]. […]
# [2] = molecular target: T1, IDO1; test: Enzyme-based IDO1 activity assay; format: biochemical; details: purified human IDO1 enzyme; read-out: Enzymatic assay IC50 (hIDO1)
# [3] = molecular target: T2, ferric IDO1 (Homo sapiens, UniProt P14902); test: Measurement of IDO1 absorbance spectra (UV–visible); format: binding; details: 20 µM compound, 5 µM IDO1, phosphate buffer pH 6.5; 406 nm in absence of compound
# T2 construct: made in house
# T2 sequence (P14902 whole entry): as above
# Protocol: Absorbance spectra (250–480 nm) were measured immediately after addition of compound LBJ-10 (20 µM in 0.5% DMSO) to IDO1 (5 µM) in phosphate buffer (pH 6.5) using a Tecan Safire2 microplate reader.
# A UV–visible spectra study was performed to evaluate the binding of the representative compound LBJ-10 (Figure 11). The absorption spectrum of the haeme group is highly sensitive to the changes in the polarity of haeme surrounding upon the ligand or substrate binding, leading to the change of spectra properties of the haeme. The UV–visible spectra of ferric IDO1 was measured in the presence and absence of compound LBJ-10.
structure (smiles),measurement,setting,value
"N#Cc1ccc(C(F)(F)F)nc1SCC(=O)Nc1ccc(F)c(Cl)c1 [LBJ-10, N-(3-chloro-4-fluorophenyl)-2-((3-cyano-6-(trifluoromethyl)pyridin-2-yl)thio) acetamide]",Inhibition type (reversibility),[1],reversible inhibitor
same,IC50,[2],840 ± 330 nM
same,Soret peak of ferric IDO1 in the presence of compound,[3],416 nm
